Patent US5378690A, “New renin-inhibitory oligopeptides, their preparation and their use” (Sankyo Company, Limited, priority 1986, dated 1995)

Biological target: T1, human renin (Homo sapiens, UniProt P00797)
T1 sequence (P00797 67-406): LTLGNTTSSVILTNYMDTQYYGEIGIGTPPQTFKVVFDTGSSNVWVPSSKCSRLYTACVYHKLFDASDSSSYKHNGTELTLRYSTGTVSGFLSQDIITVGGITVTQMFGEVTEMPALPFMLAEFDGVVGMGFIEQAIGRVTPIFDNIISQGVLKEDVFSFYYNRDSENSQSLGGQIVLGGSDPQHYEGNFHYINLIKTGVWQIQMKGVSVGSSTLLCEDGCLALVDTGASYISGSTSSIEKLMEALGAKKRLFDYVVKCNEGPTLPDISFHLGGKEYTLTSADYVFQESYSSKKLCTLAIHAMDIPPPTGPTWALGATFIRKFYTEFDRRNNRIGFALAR
Assay: Inhibition of renin activity
Assay type: biochemical
Conditions: 1×10^-6 M of the test compound, sheep angiotensinogen, pH 7.3, 10 minutes at 37° C., mean of 3 or 4 experiments
Protocol: The ability of various compounds of the invention to inhibit the activity of renin was determined according to the following method, which follows essentially the procedure of Kokubu et al. [Hypertension, 5, 191-197 (1983)].
Specifically, each test compound was dissolved in 60% v/v aqueous ethanol. Human renin activity in the presence and absence of each compound was measured using sheep angiotensinogen. The total volume of 1 ml of assay mixture contained 0.1 mole/litre phosphate buffer (pH 7.3), human renin (equivalent to 0.5 ng angiotensin I per ml per minute), sheep angiotensinogen (equivalent to 200 ng angiotensin I) 1×10^-6 M of the test compound, 6% v/v ethanol and angiotensinase inhibitors (10 mmole/litre sodium ethylenediaminetetraacetate and 3.4 mmole/litre 8-hydroxyquinoline). The mixture was allowed to react for 10 minutes at 37° C., and then the reaction was stopped by placing the reaction tube in a boiling water bath for 5 minutes. The mixture was then centrifuged and the supernatant (0.05-0.1 ml) was used to assay remaining angiotensin I.
An identical experiment was carried out, as a control, except that the test compound was omitted. From the values obtained were calculated the % inhibition of renin activity achieved by each test compound. The results are shown in the following Table 9, in which the compounds of the invention are identified by the numbers of the Examples given hereafter in which are described their preparation. The values given are the mean of 3 or 4 experiments.

Inhibitory Activity (%)	Compound
97.1	N-{N-[N-(N-Benzyl-N-methylaminoacetyl)-3-(1-naphthyl)-L-alanyl]-L-tryptophyl}-cyclostatin-[3-(2-oxo-1-pyrrolidinyl)propyl]amide [Example 76]
98.4	CCCCCNC(=O)C[C@H](O)[C@H](CC1CCCCC1)NC(=O)[C@H](Cc1cscn1)NC(=O)[C@H](Cc1cccc2ccccc12)NC(=O)CN1CCOCC1 [Example 107, N-{N-[N-Morpholinoacetyl-3-(1-naphthyl)-L-alanyl]-3-(4-thiazolyl)-L-alanyl}-cyclostatin-pentylamide]
96.1	N-{N-[N-(N-Benzyl-N-ethylaminoacetyl)-3-(1-naphthyl)-L-alanyl]-L-leucyl}-cyclostatin-(2-morpholinoethyl)amide [Example 69]
98.6	CC(C)CCNC(=O)C[C@H](O)[C@H](CC1CCCCC1)NC(=O)[C@H](Cc1cscn1)NC(=O)[C@H](Cc1cccc2ccccc12)NC(=O)CN1CCOCC1 [Example 108]
98.3	CCC(C)CNC(=O)C[C@H](O)[C@H](CC1CCCCC1)NC(=O)[C@H](Cc1cscn1)NC(=O)[C@H](Cc1cccc2ccccc12)NC(=O)CN1CCOCC1 (mixture of isomers) [Example 109]
98.2	CC(C)CN(CC(C)C)C(=O)C[C@H](O)[C@H](CC1CCCCC1)NC(=O)[C@H](Cc1cscn1)NC(=O)[C@H](Cc1cccc2ccccc12)NC(=O)CN1CCOCC1 [Example 106]
98.0	CCCCNC(=O)C[C@H](O)[C@H](CC1CCCCC1)NC(=O)[C@H](Cc1cscn1)NC(=O)[C@H](Cc1cccc2ccccc12)NC(=O)CN(C)C1CCCCC1 [Example 112, N-{N-[N-(N-Cyclohexyl-N-methylaminoacetyl)-3-(1-naphthyl)-L-alanyl]-3-(4-thiazolyl)-L-alanyl}-cyclostatin-butylamide]
98.3	CCCCCCNC(=O)C[C@H](O)[C@H](CC1CCCCC1)NC(=O)[C@H](Cc1cscn1)NC(=O)[C@H](Cc1cccc2ccccc12)NC(=O)CN1CCOCC1 [Example 110, N-{N-[N-Morpholinoacetyl-3-(1-naphthyl)-L-alanyl]-3-(4-thiazolyl)-L-alanyl}-cyclostatin-hexylamide]
96.0	CC(C)CCNC(=O)C[C@H](O)[C@H](CC1CCCCC1)NC(=O)[C@H](Cc1cscn1)NC(=O)[C@H](Cc1cccc2ccccc12)NC(=O)CN(C)Cc1ccccc1 [Example 111, N-{N-[N-(Benzyl-N-methylaminoacetyl)-3-(1-naphthyl)-L-alanyl]-3-(4-thiazolyl)-L-alanyl}-cyclostatin-isopentylamide]

More lines, now with the values behind:

Compound	Inhibitory Activity (%)
O=C(C[C@H](O)[C@H](CC1CCCCC1)NC(=O)C(Cc1cscn1)NC(=O)[C@@H](CC(=O)N1CCCCC1)Cc1cccc2ccccc12)NCCN1CCOCC1 (mixture of isomers) [Example 11, N-{N-[(2R)-2-(1-Naphthylmethyl)-3-(piperidinocarbonyl)propionyl]-3-(4-thiazolyl)-DL-alanyl}-cyclostatin-(2-morpholinoethyl)amide]	96.9
CC(C)N(CC(=O)N[C@@H](Cc1cccc2ccccc12)C(=O)N[C@@H](Cc1cscn1)C(=O)N[C@@H](CC1CCCCC1)[C@@H](O)CC(=O)NCCN1CCOCC1)Cc1ccccc1 [Example 65, N-{N-[N-(N-Benzyl-N-isopropylaminoacetyl)-3-(1-naphthyl)-L-alanyl]-3-(4-thiazolyl)-L-alanyl}-cyclostatin-(2-morpholinoethy)amide]	97.4
O=C(C[C@H](O)[C@H](CC1CCCCC1)NC(=O)C(Cc1cscn1)NC(=O)[C@H](Cc1cccc2ccccc12)NC(=O)CCCN1CCOCC1)NCCN1CCOCC1 (mixture of isomers) [Example 42, N-55 N-[N-(4-Morpholinobutyryl)-3-(1-naphthyl -L-alanyl]-3-(4-thiazolyl)-DL-alanyl}-cyclostatin-(2-morpholinoethyl)amide]	96.7
O=C(C[C@@H](Cc1cccc2ccccc12)C(=O)N[C@@H](Cc1cscn1)C(=O)N[C@@H](CC1CCCCC1)[C@@H](O)CC(=O)NCCN1CCOCC1)NCCc1ccccc1 [Example 13, N-{N-[(2R)-2-(1-Naphthylmethyl)-3-(phenethylcarbamoyl)propionyl]-3-(4-thiazolyl)-L-alanyl}-cyclostatin-(2-morpholinoethyl)amide]	96.6
CC[C@H](C)[C@@H](CN1CCOCC1)NC(=O)C[C@H](O)[C@H](CC1CCCCC1)NC(=O)[C@H](Cc1cscn1)NC(=O)[C@H](CC1CCCCC1)NC(=O)CN(C)Cc1ccccc1 [Example 100, N-{N-[N-(N-Benzyl-N-methylaminoacetyl)-3-cyclohexyl-L-alanyl]-3-(4-thiazolyl)-L-alanyl}-cyclostatin-[(1S,2S)-2-methyl-1-(morpholinomethyl)butyl]amide]	96.1
COc1ccccc1N1CCN(CC(=O)N[C@@H](Cc2cccc3ccccc23)C(=O)N[C@@H](Cc2cscn2)C(=O)N[C@@H](CC2CCCCC2)[C@@H](O)CC(=O)NCCN2CCOCC2)CC1 [Example 66, N-[N-{N-[4-(2-Methoxyphenyl)-1-piperazinyl]acetyl-3-(1-naphthyl)-L-alanyl}-3-(4-thiazolyl)-L-alanyl]-cyclostatin-(2-morpholinoethyl)amide]	95.7
O=C(C[C@H](O)[C@H](CC1CCCCC1)NC(=O)C(Cc1cscn1)NC(=O)[C@@H](CC(=O)N1CCOCC1)Cc1cccc2ccccc12)NCCN1CCOCC1 (mixture of isomers) [Example 2, N-{N-[(2R)-3-Morpholinocarbonyl-2-(1-naphthylmethyl)propionyl]-3-(4-thiazolyl)-DL-alanyl}-cyclostatin-(2-morpholinoethyl)amide]	91.2
CC1CN(C(=O)C[C@@H](Cc2cccc3ccccc23)C(=O)NC(Cc2cscn2)C(=O)N[C@@H](CC2CCCCC2)[C@@H](O)CC(=O)NCCN2CCOCC2)CC(C)O1 (mixture of isomers) [Example 8, N-{N-[(2R)-2-(1-Naphthylmethyl)-3-(2,6-dimethylmorpholinocarbocyl)propionyl]-3-(4-thiazolyl)-DL-alanyl}-cyclostatin-(2-morpholinoethyl)amide]	96.5
O=C(C[C@H](O)[C@H](CC1CCCCC1)NC(=O)[C@H](Cc1ccno1)NC(=O)[C@@H](CC(=O)N1CCOCC1)Cc1cccc2ccccc12)NCCN1CCOCC1 [Example 3, N-{N-[(2R)-3-Morpholinocarbonyl-2-(1-naphthylmethyl)propionyl]-3-(5-isoxazolyl)-L-alanyl}-cyclostatin-(2-morpholinoethyl)amide]	92.2
CC(C)CNC(=O)C[C@H](O)[C@H](CC1CCCCC1)NC(=O)[C@H](Cc1cscn1)NC(=O)[C@H](Cc1cccc2ccccc12)NC(=O)CN1CCOCC1 [Example 105, N-{N-[N-Morpholinoacetyl-3-(1-naphthyl)-L-alanyl]-3-(4-thiazolyl)-L-alanyl}-cyclostatin-isobutylamide]	98.0
CCCCNC(=O)C[C@H](O)[C@H](CC1CCCCC1)NC(=O)[C@H](Cc1cscn1)NC(=O)[C@H](Cc1cccc2ccccc12)NC(=O)CN1CCOCC1 [Example 104, N-{N-[N-Morpholinoacetyl-3-(1-naphthyl)-L-alanyl]-3-(4-thiazolyl)-L-alanyl}-cyclostatin-butylamide]	98.6
CC[C@H](C)CNC(=O)C[C@H](O)[C@H](CC1CCCCC1)NC(=O)[C@H](Cc1cscn1)NC(=O)[C@H](Cc1cccc2ccccc12)NC(=O)CN1CCOCC1 [Example 98, N-{N-[N-Morpholinoacetyl-3-(1-naphthyl)-L-alanyl]-3-(4-thiazolyl)-L-alanyl}-cyclostatin-[(S)-2-methylbutyl]amide]	98.1
CC(C)C[C@H](NC(=O)[C@H](Cc1cccc2ccccc12)NC(=O)CN(C)Cc1ccccc1)C(=O)N[C@@H](CC1CCCCC1)[C@@H](O)CC(=O)NCCCN1CCCC1=O [Example 73, N-{N-[N-(N-Benzyl-N-methylaminoacetyl)-3-(1-naphthyl)-L-alanyl]-L-leucyl}-cyclostatin-[3-(2-oxo-1-pyrrolidinyl)propyl]amide]	97.7
CCCNC(=O)C[C@H](O)[C@H](CC1CCCCC1)NC(=O)[C@H](Cc1cscn1)NC(=O)[C@H](Cc1cccc2ccccc12)NC(=O)CN1CCOCC1 [Example 103, N-{N-[N-Morpholinoacetyl-3-(1-naphthyl)-L-alanyl]-3-(4-thiazolyl)-L-alanyl}-cyclostatin-propylamide]	98.6
CN(CC(=O)N[C@@H](CC1CCCCC1)C(=O)N[C@@H](Cc1cscn1)C(=O)N[C@@H](CC1CCCCC1)[C@@H](O)CC(=O)NCCN1CCOCC1)Cc1ccccc1 [Example 101, N-{N-[N-(N-Benzyl-N-methylaminoacetyl)-3-cyclohexyl-L-alanyl]-3-(4-thiazolyl)-L-alanyl}-cyclostatin-(2-morpholinoethyl)amide]	94.9
